What was measured:
[1] = system: NSCs; assay: Proliferation marker expressions (BrdU, ki-67) of the NSCs, immunofluorescence staining; assay type: cell-based, mice; details: 0.1, 1, 10 μM for 16 hours, especially 1 μM
Protocol: To prepare the NSCs, after removal of meninges, subventricular zones (SVZ) of lateral ventricles from adult mice brain (4 week-of-age) are aseptically isolated and dissociated as previously described (J Cell Sci 2006; 119, 4467-4474). All steps are operated under sterile conditions. Then, neurosphere culture are prepared in neurobasal (NB) medium (Gibco BRL) supplemented with 2% of B27 (Gibco BRL), 2 mM of L-glutamine (PAN Biotech), 100 U/ml of penicillin/[…] of streptomycin (Gibco BRL). For maintenance and expansion of the cultures, the NB/B27 is further supplemented with 2 μg/mL of heparin (Sigma), 20 ng/mL of FGF-2 (R&D Systems) and 20 ng/mL of EGF (R&D Systems). […] For clonal/low density cultures, primary neurospheres grown at high density are dissociated into a single cell suspension and reseeded into 96-well plates at 100 cells per ml of media and the number of newly formed neurospheres is counted after 7 days. In addition, the Bmi-1 expressions, SOX2 expressions, Nestin expressions, Musashi-1 expressions, BrdU expressions and ki-67 expressions of the newly formed neurospheres are determined by the immunofluorescence staining.
To measure the effect of the administration of the Compound 1 on proliferation marker expressions of the NSCs, the NSCs treated with the Compound 1 are detected by the immunofluorescence staining. […]

[2] = system: Bmi-1; assay: Bmi-1 expressions in the brains of the ischemic rats, Western blot; assay type: in vivo, Sprague-Dawley (SD) rats
Text: (§1) The ischemic rats are induced by an ischemia-reperfusion model to simulate transient focal cerebral ischemia in rats. Test animals are male Sprague-Dawley (SD) rats weighing 250-300 g. The rats are anesthetized with chloral hydrate (0.4 g/kg IP) and subjected to cerebral ischemia. The ischemia-reperfusion model is induced by ligations of bilateral common carotid arteries (CCAs) and a right middle cerebral artery (MCA). The bilateral CCAs are clamped with non-traumatic arterial clips, and the right MCA is ligated with an 10-0 nylon suture. After 90 minutes ischemia, the suture on the MCA and the arterial clips on CCAs are removed to allow reperfusion. Core body temperature is monitored with a thermistor probe (Hewlett-Packard Model 21090A probe, Hewlett-Packard Company, Andover, Mass.), and maintained at 37° C. with a heating pad during anesthesia. After recovery from anesthesia, rat body temperature is maintained at 37° C. with a heat lamp.
The ischemia-reperfusion model is established as described above. The ischemic rats are injected intraperitonealy with different dosages of the Compound 1 (0.1 mg/kg, 1 mg/kg and 10 mg/kg) at 4 hours after MCA ligation for three consecutive days. Sham rats undergo same protocol with the exception of the ligation of the bilateral CCAs and the right MCA. The rats only injected a vehicle are used as the control. The ischemic rats are decapitated at 4 hours, 16 hours, 24 hours, 36 hours and 72 hours after the Compound 1 injection. The Bmi-1 expressions and the HIF-1α expressions of the ischemic rats are detected by the Western blot analysis.
The ischemic rats are further treated with 100 mg/kg of the 2-ME2 or stereotaxic injected with the LV-Bmi-1-sh or the LV-control-sh to inhibit the HIF-1α expressions and the Bmi-1 expressions, and then the ischemic rats are treated with 1 mg/kg of the Compound 1. The effect of the administration of the Compound 1 on the Bmi-1 expressions in the brains of the ischemic rats which are reduced the Bmi-1 expressions or the HIF-1α expressions are detected by the Western blot analysis.

[3] = system: ischemic rats; assay: Body swing test; assay type: in vivo, Sprague-Dawley (SD) rats; details: 1 mg/kg, vs control group; 1, 7, 14 and 28 days after the injection, FIG. 19A
Text: as §1, with “lamp. […]” for “lamp.”
The body swing test is used to assess body asymmetry after MCA ligation. Initially, the ischemic rats are suspended by their tail 10 cm above the cage floor, and lateral body movements are recorded. Specifically, the frequency with which the initial head swing contra-lateral to the ischemic side is counted in twenty consecutive tests and is normalized to the baseline score.

[4] = system: ischemic rats; assay: Grip strength test; assay type: in vivo, Sprague-Dawley (SD) rats; details: 1 mg/kg, vs control group, FIG. 20
Text: as §1, with “After recovery from anesthesia, rat body temperature is maintained at 37° C. with a heat lamp.” left out
The grip strength is analyzed using Grip Strength Meter (TSE-Systems). In brief, the grip strength of each forelimb of the ischemic rat is measured separately from the mean of 20 pulls, and the ratio of ipsilateral grip strength to contralateral grip strength is calculated. In addition, the ratio of grip strength post-cell-treatment and pre-cell-treatment is also calculated, and the changes are presented as a percentage of the pre-cell-treatment value.

SMILES | proportion of the BrdU+ cells in the neurosphere culture ([1]; FIG. 12B) | proportion of the ki-67+ cells in the neurosphere culture ([1]; FIG. 12C) | treatment time with the highest Bmi-1 expression ([2]; 1 mg/kg, 4 to 72 hours after injection, FIG. 13A) [h] | Bmi-1 expressions in the brains of the ischemic rats ([2]; 0.1, 1, 10 mg/kg intraperitoneal, vs control and sham rats, FIGS. 13A to 13C) | dosage with the highest Bmi-1 expression ([2]; 0.1, 1, 10 mg/kg tested, 36 hours, FIG. 13B) [mg/kg] | neurological recovery in the body swing test [3] | grip strength ratio [4] | increased Bmi-1 expressions by the Compound 1 treatment in brains of ischemic rats ([2]; 100 mg/kg 2-ME2 plus 1 mg/kg Compound 1, FIG. 13C)
COC(=O)C1=CO[C@@H](O)[C@@H]2C(COC(=O)[C@@H](N)Cc3ccccc3)=CC[C@H]12 [Compound 1] | increases the proportion | increases the proportion | 36 | significantly increases | 1 | much more neurological recovery | much better | 
COc1cc2c(cc1O)CC[C@@H]1[C@@H]2CC[C@]2(C)[C@@H](O)CC[C@@H]12 [Compound 2-ME2, 2-Methoxyestradiol, reference compound] |  |  |  |  |  |  |  | inhibited
